# Assays:
# dopamine β-hydroxylase = details: cited from earlier work
# [1] = cited from earlier work
# [2] = system: Streptomyces sp. isolates 275 and 124; assay: Streptomycin susceptibility; assay type: cell-based, Streptomyces albovinaceous
# Source text: Streptomyces sp. isolates 124 and 275 were characterized by the methods developed by collaborators of the International Streptomyces Project for the identification of Streptomyces species (1, 7, 8, 10-14). Identification was made by using Nonomura's classification key (7) and Bergey's Manual of Determinative Bacteriology (1). The color of mature aerial mycelia was observed on OMA, potato dextrose agar, and Pridham and Gottlieb's basal agar with glucose (8). The colony color on the reverse side of the plate was observed on potato dextrose agar, OMA, and tyrosine-casein-nitrate agar. Color standards and color nomenclature were used to describe the colony color. The production of melanoid pigments was examined on peptone-iron agar, tyrosine agar, and tryptone-yeast extract broth. Carbon utilization by the organism was studied on Pridham and Gottlieb's basal agar with various carbon sources added (8).
# [3] = system: Fusobacterium necrophorum; details: cited from earlier work
# [4] = system: Bacillus subtilis and Saccharomyces cerevisiae; assay: antimicrobial activity, paper disk agar diffusion bioassay; assay type: cell-based
smiles,measurement,setting,value
[C-]#[N+]C(C(=O)OCC(O)C(O)C(O)C(O)COC(=O)C([N+]#[C-])=C(C)C)=C(C)C (stereo not drawn) [A32390A],inhibitor of dopamine β-hydroxylase,dopamine β-hydroxylase,inhibitor
same,antimicrobial,[1],antimicrobial compound
[H]/N=C(/N)N[C@H]1[C@H](O)[C@@H](O)[C@H](O[C@@H]2O[C@@H](C)[C@](O)(C=O)[C@H]2O[C@@H]2O[C@@H](CO)[C@H](O)[C@@H](O)[C@@H]2NC)[C@@H](N/C(N)=N\[H])[C@@H]1O [Streptomycin],Streptomycin susceptibility,[2]; 10 μg/ml,not
same,Streptomycin susceptibility,[2]; 50 μg/ml,Inhibited
CC[C@H]1OC(=O)[C@H](C)[C@@H](O[C@H]2C[C@@](C)(OC)[C@@H](O)[C@H](C)O2)[C@H](C)[C@@H](O[C@@H]2O[C@H](C)C[C@H](N(C)C)[C@H]2O)[C@](C)(O)C[C@@H](C)C(=O)[C@H](C)[C@@H](O)[C@]1(C)O [erythromycin],resistance of Fusobacterium necrophorum,[3],high levels of resistance
C[C@@H]1C[C@H](C)C[C@H](C)[C@@H](O)CC(=O)O[C@H]([C@@H]2CCC[C@H]2C(=O)O)C/C=C/C=C(/CN)[C@H](O)[C@@H](C)C1 [primary amine],antimicrobial activity,[4],no antimicrobial activity

# From patent US4759928A, “Antibiotic: Treponemycin” (Washington State University Research Foundation, priority 1986, dated 1988)
